Measured values from patent US6632921B1, “Seryl-lysyl-based peptide and peptidomimetic inhibitors of N-myristoyl transferase as anti-infective agents” (G. D Searle & Co, priority 1995, dated 2003).

Experiments:
C. albicans 516 = assay: Antifungal susceptibility testing, pH 7.0/35° C., 1x10^3 cells/mL; assay type: cell-based, Candida albicans; details: Candida albicans, 516; pH 7.0/35° C./1x10^3 cells/mL, 48 hrs; read-out: EC50 - 48 HRS C.albicans (516)
Description: (§1) 2) Assay at pH 7.0/35° C. Incubation/(Candida Strains Only).
(§2) Based on several papers published during 1990-1993 regarding the standardization of testing procedures at multiple research centers, and the finding that, inoculum size, pH of media, and the temperature of incubation drastically affect the antifungal activity of several compounds, particularly in the Azole class of antifungals, an additional assay was configured at pH 7.0 for Candida albicans. [M. A. Pfaller et al, Antimicrobial Agents and Chemotherapy, 34, 1648-1654 (1990); F. C. Odds et al, Antimicrobial Agents and Chemotherapy, 36, 1727-1737 (1992); R. A. Cook et al, Antimicrobial Agents and Chemotherapy, 34, 1542-1545 (1990)]
(§3) The assay format is identical to the first one with the following modifications: C.albicans cells are diluted to 1×10^3 cells/ml into 2× buffered YNB (YNB buffered with 1.65 mM MOPS, pH 7.0, with the addition of 2% Dextrose and 0.08% casamino acids mixture, bio 101. inc,cat #10420-100). Incubation is carried out at 35° C. instead of 30° C., and cell growth is monitored at 590 nm at 24 and 48 hrs as described. All other aspects of the assay are identical. This assay was validated with amphotericin B, fluconazole, cilofungin (Ly-121019), Nikkomycin and terbinafine using the following Candida strains- (C.albicans, B311, C.parasilosis, C.tropicalis, C.lusitaniae, C.glabrata, and C. albicans 516)-Table II. All strains were from Dr. Kobayashi, Washington university.

C.glabrata = assay: as above; assay type: cell-based; details: Nakaseomyces glabratus; pH 7.0/35° C./1x10^3 cells/mL, 48 hrs; read-out: EC50 - 48 HRS C.glab.
Description: as §1, §2, §3

C.albicans, B311 = assay: as above; assay type: cell-based; details: Candida albicans, B311; pH 7.0/35° C./1x10^3 cells/mL, 48 hrs; read-out: EC50 - 48 HRS C.albicans
Description: as §1, §2, §3

C.parasilosis = assay: as above; assay type: cell-based; details: pH 7.0/35° C./1x10^3 cells/mL, 48 hrs; read-out: EC50 - 48 HRS C.para
Description: as §1, §2, §3

C.tropicalis = assay: as above; assay type: cell-based; details: Candida tropicalis; pH 7.0/35° C./1x10^3 cells/mL, 48 hrs; read-out: EC50 - 48 HRS C.trop.
Description: as §1, §2, §3

C.lusitaniae = assay: as above; assay type: cell-based; details: Clavispora lusitaniae; pH 7.0/35° C./1x10^3 cells/mL, 48 hrs; read-out: EC50 - 48 HRS C.lusi.
Description: as §1, §2, §3

[1] = tested on: a variety of fungal species, including C. albicans; details: Sabouraud dextrose agar; series of n-alkoxyacetic acids; cited from earlier work

Q: With C[C@@H]1[C@H](O)[C@@H](C)/C=C/C=C/C=C/C=C/C=C/C=C/C=C/[C@H](O[C@@H]2O[C@H](C)[C@@H](O)[C@H](N)[C@@H]2O)C[C@@H]2O[C@](O)(C[C@@H](O)C[C@@H](O)[C@H](O)CC[C@@H](O)C[C@@H](O)CC(=O)O[C@H]1C)C[C@H](O)[C@H]2C(=O)O [Amphotericin, amphotericin B] as the compound, how does the EC50 (C. albicans 516) read?
A: 0.14 µg/mL

Q: And the EC50 (C.glabrata)?
A: 0.47 µg/mL

Q: And the EC50 (C.albicans, B311)?
A: 0.11 µg/mL

Q: And the EC50 (C.parasilosis)?
A: 0.31 µg/mL

Q: And the EC50 (C.tropicalis)?
A: 0.44 µg/mL

Q: And the EC50 (C.lusitaniae)?
A: 0.42 µg/mL

Q: With OC(Cn1cncn1)(Cn1cncn1)c1ccc(F)cc1F [Fluconazole, fluconazole] as the compound, how does the EC50 (C. albicans 516) read?
A: 0.65 µg/mL

Q: What about the EC50 (C.glabrata) of the same compound?
A: 26 µg/mL

Q: And the EC50 (C.albicans, B311)?
A: 0.71 µg/mL

Q: What about the EC50 (C.parasilosis) of the same compound?
A: 0.91 µg/mL

Q: What about the EC50 (C.tropicalis) of the same compound?
A: 2.6 µg/mL

Q: And the EC50 (C.lusitaniae)?
A: 0.6 µg/mL

Q: For CCCCCCCCCCCOCC(=O)O [3-oxatetradecanoic acid], which “effects on the growth of fungal species” value [1] is on record?
A: inhibiting growth

Q: For CN(C/C=C/C#CC(C)(C)C)Cc1cccc2ccccc12 [Terbinafine, terbinafine], which EC50 (C. albicans 516) is on record?
A: 3.2 µM

Q: What about the EC50 (C.glabrata) of the same compound?
A: > 100 µM

Q: What about the EC50 (C.albicans, B311) of the same compound?
A: 4.4 µM

Q: What about the EC50 (C.parasilosis) of the same compound?
A: 0.2 µM

Q: What about the EC50 (C.tropicalis) of the same compound?
A: > 100 µM

Q: What about the EC50 (C.lusitaniae) of the same compound?
A: 0.4 µM
